According to patent publication US20230277464A1, “TABLET DOSAGE FORMS FOR LIPID-BASED DRUG DELIVERY SYSTEMS” (ABITEC Corporation, priority 2022, published 2023):

Assay: Visual dissolution of ibuprofen in SEDDS pre-concentrate
Type: physicochemical
Procedure: The medium chain fatty acid esters and oil were weighed into a 2000 mL glass beaker. Subsequently, a magnetic stirrer was added to the beaker. The medium chain fatty acid esters and oil were blended to uniformity for 5 minutes with the magnetic stirrer set at 5. […] […] The pre-concentrate was observed 24 hours later to ensure that the ibuprofen was still dissolved.

- Time ibuprofen remained dissolved in the pre-concentrate (room temperature): at least 24 hours
- Ibuprofen dissolved in the pre-concentrate components (with heating): about 15.0%
Compound: CC(C)Cc1ccc(C(C)C(=O)O)cc1 (centres unmarked) [Ibuprofen, ibuprofen]
